Drawing on patent US10703735B2, “4-phenyl-coumarin derivatives, processes for their preparation and uses thereof for the treatment of cancer” (Lead Discovery Center GmbH, priority 2018, dated 2020), this text covers IC50 for 31 compounds.

pIC50: −log10 of the molar value.

Chain of mitochondrial RNA-polymerase (POLRMT) (Q8BKF1 42-1207): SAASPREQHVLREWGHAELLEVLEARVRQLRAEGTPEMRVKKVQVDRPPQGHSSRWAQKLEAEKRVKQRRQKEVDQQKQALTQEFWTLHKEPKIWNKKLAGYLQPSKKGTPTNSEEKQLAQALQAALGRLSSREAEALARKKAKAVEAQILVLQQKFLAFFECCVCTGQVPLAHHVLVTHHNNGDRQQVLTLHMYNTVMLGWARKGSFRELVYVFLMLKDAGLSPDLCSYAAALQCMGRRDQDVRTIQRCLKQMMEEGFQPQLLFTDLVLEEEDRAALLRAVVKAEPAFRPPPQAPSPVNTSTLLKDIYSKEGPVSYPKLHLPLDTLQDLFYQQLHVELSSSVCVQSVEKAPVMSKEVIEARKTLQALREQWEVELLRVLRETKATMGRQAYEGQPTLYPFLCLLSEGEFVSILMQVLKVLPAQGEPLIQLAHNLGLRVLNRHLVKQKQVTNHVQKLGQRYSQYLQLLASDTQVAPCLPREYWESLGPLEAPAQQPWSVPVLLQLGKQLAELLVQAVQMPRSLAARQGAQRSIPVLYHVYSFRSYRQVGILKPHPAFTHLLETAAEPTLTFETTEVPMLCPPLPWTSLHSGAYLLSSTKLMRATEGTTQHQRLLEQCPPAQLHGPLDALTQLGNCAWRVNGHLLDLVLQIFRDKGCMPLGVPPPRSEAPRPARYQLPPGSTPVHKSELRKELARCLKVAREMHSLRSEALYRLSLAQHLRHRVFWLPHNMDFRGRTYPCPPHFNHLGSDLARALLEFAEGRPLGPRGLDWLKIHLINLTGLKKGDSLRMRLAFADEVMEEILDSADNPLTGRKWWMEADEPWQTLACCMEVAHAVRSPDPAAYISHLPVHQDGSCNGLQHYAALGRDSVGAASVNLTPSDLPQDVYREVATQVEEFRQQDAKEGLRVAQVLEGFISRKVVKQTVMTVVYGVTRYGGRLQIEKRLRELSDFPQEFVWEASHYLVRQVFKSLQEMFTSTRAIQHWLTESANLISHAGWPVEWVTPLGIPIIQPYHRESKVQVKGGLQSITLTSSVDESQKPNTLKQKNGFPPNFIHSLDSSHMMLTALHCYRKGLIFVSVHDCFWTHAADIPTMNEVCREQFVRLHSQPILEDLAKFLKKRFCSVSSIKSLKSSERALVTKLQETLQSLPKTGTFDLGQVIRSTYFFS

The assay has as its target mitochondrial RNA-polymerase (POLRMT) (Mus musculus, UniProt Q8BKF1). As to the kind of experiment: Homogeneous TR-FRET assay for mitochondrial transcription activity. The conditions noted are these: homogeneous TR-FRET assay according to Example 4; read-out: mitochondrial transcription activity (IC-50). The assay is classed as biochemical. The text has this: The TR-FRET assay was basically conducted as described in WO 2016/193231A1, especially as described in example 1 (hereby incorporated by reference). With respect to the background of the mitochondrial transcription it is referred to Falkenberg et al. (2002) and Posse et al. (Posse et al. 2015). The method monitors the activity of mitochondrial RNA-polymerase via detection of the formation of its product, a 407 bp long RNA sequence. Detection of the product is facilitated by hybridization of two DNA-oligonucleotide probes to specific and adjacent sequences within the RNA product sequence. Upon annealing of the probes, two fluorophores that are coupled directly to an acceptor nucleotide probe (ATT0647, 5′) or introduced via a coupled streptavidin interacting with a biotinylated donor nucleotide probe on the other side (Europium cryptate, 3) are brought into sufficient proximity to serve as a fluorescence-donor-acceptor pair as generally described in Walters and Namchuk (2003). Thus, a FRET signal at 665 nm is generated upon excitation at 340 nm.
Briefly, the protocol described here was applied for screening and activity determination in a low-volume 384-well microtiter plate with non-binding surface. For high-throughput application in the 1536-well microtiter plate format, volumes of the reagent mixes were adjusted, maintaining the volumetric ratio. Proteins POLRMT (NM_172551.3), TFAM (NM_009360.4) and TFB2M (NM_008249.4) were diluted from their stocks to working concentrations of 150 nM, 1.8 μM and 330 nM respectively, in a dilution buffer containing 100 mM Tris-HCl pH 8.0, 200 mM NaCl, 10% (v/v) glycerole, 2 mM glutathione (GSH), 0.5 mM EDTA and 0.1 mg/mL BSA. Protein dilutions and template DNA, comprising a pUC18 plasmid encoding the mitochondrial light strand promoter, restriction linearized proximal to the promoter 3′-end (pUC-LSP), were mixed at the twofold final assay-concentration in a reaction buffer, containing 10 mM Tris-HCl pH 7.5, 10 mM MgCl2, 40 mM NaCl, 2 mM GSH, 0.01% (w/v) Tween-20 and 0.1 mg/mL BSA.
5 μL of this mix were dispensed, depending on the chosen microtiter plate format, using multi-channel pipettes or a Multidrop® dispenser (Thermo Fisher Scientific, Waltham Mass.) into the wells of a microtiter plate and incubated at room temperature (RT) for 10 min. Chemical compounds under scrutiny in the assay were applied using contact-free acoustic droplet-dispensing (Echo520® Labcyte Inc., Sunnyvale Calif.) from 10 mM compound stocks in 100% DMSO, to a final concentration of 10 μM or in serial dilution series of the required concentration range. Equal amounts of DMSO without any compound were added to positive control samples, followed by an incubation step at RT for 10 min.
The enzymatic reaction was started by the addition of 5 μL of a mix of dNTPs in reaction buffer to a final concentration of 500 μM each. No nucleotide mix was added to negative control samples. The content of the wells was mixed using a VarioTeleshaker™ (Thermo Fisher Scientific, Waltham Mass.) at 1500 rpm for 45 sec after which the microtiter plate was centrifuged at 500×g for 1 min. The samples were incubated for 2 h at RT with humidity control to avoid evaporation. The detection reagents were prepared in a buffer that was composed, such that the enzymatic reaction was terminated due to chelating of Mg-ions and increased ionic strength, containing 50 mM Tris-HCl pH 7.5, 700 mM NaCl, 20 mM EDTA, and 0.01% (w/v) Tween-20. Importantly Eu-cryptate-coupled streptavidin had to be preincubated with a 100-fold molar excess of a random sequence oligonucleotide for 10 min at RT in the dark to block unspecific binding of single stranded RNA to the protein. Subsequently, the blocked streptavidin(-Eu) was mixed with the DNA-probes on ice and kept away from light until use. […]
Regarding `CCOC(=O)[C@H]1CCCN(C(=O)[C@@H](C)Oc2ccc3c(-c4ccccc4)cc(=O)oc3c2)C1` [Compound 35, ethyl (3S)-1-[(2R)-2-(2-oxo-4-phenyl-chromen-7-yl)oxypropanoyl]piperidine-3-carboxylate], the pIC50 was 6.00 to 7.00.
For `CC(Oc1ccc2c(-c3ccccc3)cc(=O)oc2c1)C(=O)Oc1ccccc1` (stereo not shown) [Compound 24, phenyl 2-(2-oxo-4-phenyl-chromen-7-yl)oxypropanoate] the value was 5.00 to 6.00; for `CC(Oc1ccc2c(-c3ccccc3)cc(=O)oc2c1)C(=O)Nc1cccnc1` (stereo not shown) [Compound 55, 2-(2-oxo-4-phenyl-chromen-7-yl)oxy-N-(3-pyridyl)propanamide], 5.00 to 6.00; for `CCOC(=O)[C@H]1CCCN(C(=O)C(C)Oc2ccc3c(-c4ccccc4)cc(=O)oc3c2)C1` (mixture of isomers) [Compound 64, ethyl rac-(3S)-1-[2-(2-oxo-4-phenyl-chromen-7-yl)oxypropanoyl]piperidine-3-carboxylate], 5.00 to 6.00.
With `CC(Oc1ccc2c(-c3ccccc3)cc(=O)oc2c1)C(=O)N1CCC(C(=O)O)CC1` (stereo not shown) [Compound 69, 1-[2-(2-oxo-4-phenyl-chromen-7-yl)oxypropanoyl]piperidine-4-carboxylic acid] the figure was 5.00 to 6.00; with `CC(Oc1ccc2c(-c3ccccc3)cc(=O)oc2c1)C(=O)Nc1ccc(CCCO)cc1` (stereo not shown) [Compound 5, N-[4-(3-hydroxypropyl)phenyl]-2-(2-oxo-4-phenyl-chromen-7-yl)oxy-propanamide], 6.00 to 7.00; with `CC(Oc1ccc2c(-c3ccccc3)cc(=O)oc2c1)C(=O)N1CCC[C@H](C(=O)N(C)C)C1` (mixture of isomers) [Compound 68, rac-(3S)-N,N-dimethyl-1-[2-(2-oxo-4-phenyl-chromen-7-yl)oxpropanoyl]piperidine-3-carboxamide], 5.00 to 6.00.
With `CC(Oc1cc2oc(=O)cc(-c3ccccc3)c2cc1Cl)C(=O)NC[C@H]1CC[C@H](C(=O)O)CC1` (stereo partly shown) [Compound 89, 4-[[2-(6-chloro-2-oxo-4-phenyl-chromen-7-yl)oxypropanoylamino]methyl]cyclohexanecarboxylic acid] the figure was 5.00 to 6.00; with `CCOCCOC(=O)COc1ccc2c(-c3ccccc3)cc(=O)oc2c1` [Compound 73, 2-ethoxyethyl 2-(2-oxo-4-phenyl-chromen-7-yl)oxyacetate], 5.00 to 6.00; with `O=C(COc1cc2oc(=O)cc(-c3ccccc3)c2cc1Cl)NCc1ccccn1` [Compound 99, 2-(6-chloro-2-oxo-4-phenyl-chromen-7-yl)oxy-N-(2-pyridylmethyl)acetamide], 5.00 to 6.00.
For the compound `CCN(CC)C(=O)COc1ccc2c(-c3ccccc3)cc(=O)oc2c1` [Compound 48, N,N-diethyl-2-(2-oxo-4-phenyl-chromen-7-yl)oxy-acetamide], the pIC50 was 5.00 to 6.00.
Regarding `CCOC(=O)C(C)Oc1cc(F)c2c(-c3ccccc3)cc(=O)oc2c1` (stereo not shown) [Compound 87, ethyl 2-(5-fluoro-2-oxo-4-phenyl-chromen-7-yl)oxypropanoate], the pIC50 is 5.00 to 6.00.
With `COC(=O)C1CCCN(C(=O)COc2ccc3c(-c4ccccc4)cc(=O)oc3c2)C1` (stereo not shown) [Compound 23, methyl 1-[2-(2-oxo-4-phenyl-chromen-7-yl)oxyacetyl]piperidine-3-carboxylate] the figure was 5.00 to 6.00; with `CC(Oc1ccc2c(-c3ccccc3)cc(=O)oc2c1)C(N)=O` (stereo not shown) [Compound 67, 2-(2-oxo-4-phenyl-chromen-7-yl)oxypropanamide], 5.00 to 6.00; with `CC(Oc1cc(F)c2c(-c3ccccc3)cc(=O)oc2c1)C(=O)N(C)C` (stereo not shown) [Compound 80, 2-(5-fluoro-2-oxo-4-phenyl-chromen-7-yl)oxy-N,N-dimethyl-propanamide], 5.00 to 6.00.
For `CC(Oc1cc2oc(=O)cc(-c3ccccc3)c2cc1Cl)C(=O)NCC(O)c1ccccc1` (stereo not shown) [Compound 27, 2-(6-chloro-2-oxo-4-phenyl-chromen-7-yl)oxy-N-(2-hydroxy-2-phenyl-ethyl)propanamide] the value was 5.00 to 6.00; for `COC(=O)C(C)Oc1cc2oc(=O)cc(-c3ccccc3)c2cc1Cl` (stereo not shown) [Compound 58, methyl 2-(6-chloro-2-oxo-4-phenyl-chromen-7-yl)oxypropanoate], 6.00 to 7.00; for `O=C(COc1cc2oc(=O)cc(-c3ccccc3)c2cc1Cl)N1CCOCC1` [Compound 45, 6-chloro-7-(2-morpholino-2-oxo-ethoxy)-4-phenyl-chromen-2-one], 5.00 to 6.00.
For `COC(=O)COc1ccc2c(-c3ccccc3)cc(=O)oc2c1C` [Compound 91, methyl 2-(8-methyl-2-oxo-4-phenyl-chromen-7-yl)oxyacetate], the pIC50 is 5.00 to 6.00.
With `CC(Oc1ccc2c(-c3ccccc3)cc(=O)oc2c1)C(=O)N1CCCC(c2nn[nH]n2)C1` (stereo not shown) [Compound 20, 7-[1-methyl-2-oxo-2-[3-(2H-tetrazol-5-yl)-1-piperidyl]ethoxy]-4-phenyl-chromen-2-one] the figure was over 7.70; with `C[C@@H](Oc1ccc2c(-c3ccccc3)cc(=O)oc2c1)C(=O)N1CCC[C@H](C(=O)O)C1` [Compound 21, (3S)-1-[(2R)-2-(2-oxo-4-phenyl-chromen-7-yl)oxypropanoyl]piperidine-3-carboxylic acid], 6.00 to 7.00.
For `O=C(COc1cc2oc(=O)cc(-c3ccccc3)c2cc1Cl)NC1CCCCCCC1` [Compound 86, 2-(6-chloro-2-oxo-4-phenyl-chromen-7-yl)oxy-N-cyclooctyl-acetamide], the pIC50 is 5.00 to 6.00.
As to `CCOC(=O)C(C)Oc1ccc2c(-c3cccc(Cl)c3)cc(=O)oc2c1` (stereo not shown) [Compound 4, ethyl 2-[4-(3-chlorophenyl)-2-oxo-chromen-7-yl]oxypropanoate], the pIC50 was 6.00 to 7.00.
Turning to `O=C(O)C1CCCN(C(=O)COc2ccc3c(-c4ccccc4)cc(=O)oc3c2)C1` (stereo not shown) [Compound 54, 1-[2-(2-oxo-4-phenyl-chromen-7-yl)oxyacetyl]piperidine-3-carboxylic acid], the pIC50 is 6.00 to 7.00.
For `COC(=O)C1CCN(C(=O)C(C)Oc2ccc3c(-c4ccccc4)cc(=O)oc3c2)CC1` (stereo not shown) [Compound 63, methyl 1-[2-(2-oxo-4-phenyl-chromen-7-yl)oxypropanoyl]piperidine-4-carboxylate] the value was 5.00 to 6.00; for `CC(C)(C)OC(=O)COc1cc2oc(=O)cc(-c3ccccc3)c2cc1Cl` [Compound 82, tert-butyl 2-(6-chloro-2-oxo-4-phenyl-chromen-7-yl)oxyacetate], 5.00 to 6.00.
With `CC(Oc1ccc2c(-c3ccccc3)cc(=O)oc2c1)C(=O)N1CCCC(C(=O)O)C1` (stereo not shown) [Compound 14, 1-[2-(2-oxo-4-phenyl-chromen-7-yl)oxypropanoyl]piperidine-3-carboxylic acid] the figure was 6.00 to 7.00.
For `CC(Oc1cc2oc(=O)cc(-c3ccccc3)c2cc1Cl)C(=O)N1CCCC(C(=O)O)C1` (stereo not shown) [Compound 13, 1-[2-(6-chloro-2-oxo-4-phenyl-chromen-7-yl)oxypropanoyl]piperidine-3-carboxylic acid] the value was 6.00 to 7.00.
Turning to `CN(C(=O)COc1ccc2c(-c3ccccc3)cc(=O)oc2c1)c1ccc(CCO)cc1` [Compound 40, N-[4-(2-hydroxyethyl)phenyl]-N-methyl-2-(2-oxo-4-phenyl-chromen-7-yl)oxy-acetamide], the pIC50 was 6.00 to 7.00.
For `CC(Oc1ccc2c(-c3ccccc3)cc(=O)oc2c1)C(=O)NC(C(=O)O)c1ccccc1` (stereo not shown) [Compound 96, 2-[2-(2-oxo-4-phenyl-chromen-7-yl)oxypropanoylamino]-2-phenyl-acetic acid] the value was 5.00 to 6.00.
With `C[C@@H](Oc1ccc2c(-c3ccccc3)cc(=O)oc2c1)C(=O)O` [Compound 66, (2R)-2-(2-oxo-4-phenyl-chromen-7-yl)oxypropanoic acid] the figure was 5.00 to 6.00.
